Source: the supplement of paper PMC10307832

Experiments:
Experiment in all cases: relative viability (nuclei count vs DMSO), 5 days (fraction); higher = more cells survive
Shikonin + Vorinostat = compound: CC(C)=CC[C@@H](O)C1=CC(=O)c2c(O)ccc(O)c2C1=O [Shikonin] + O=C(CCCCCCC(=O)Nc1ccccc1)NO [Vorinostat] (partner 1 µM)
Summary of the method: (§1)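 Medians of duplicate plates are given as relative viability. That measure is the nuclei count in treated wells divided by the count in vehicle wells. Counts were taken on 4× images of lung cancer cell lines in 1536-well plates, 5 days after pin-tool dosing the day after seeding with one drug alone or a fixed anchor-drug dose plus five library-drug doses (not always all listed) in √10 steps.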

Shikonin + OSI-027 = compound: CC(C)=CC[C@@H](O)C1=CC(=O)c2c(O)ccc(O)c2C1=O [Shikonin] + COc1cccc2cc(-c3nc([C@H]4CC[C@H](C(=O)O)CC4)n4ncnc(N)c34)[nH]c12 [OSI-027] (partner 0.5 µM)
Summary of the method: as §1

[1] = compound: CC(C)N(CCCNC(=O)Nc1ccc(C(C)(C)C)cc1)C[C@H]1O[C@@H](n2ccc3c(N)ncnc32)[C@H](O)[C@@H]1O + C[C@]1(O)C[C@@H](c2nc(-c3ccc4ccc(-c5ccccc5)nc4c3)c3c(N)nccn32)C1 [Linsitinib] (partner 1 µM)
Summary of the method: as §1

[2] = compound: CC(C)N(CCCNC(=O)Nc1ccc(C(C)(C)C)cc1)C[C@H]1O[C@@H](n2ccc3c(N)ncnc32)[C@H](O)[C@@H]1O + CC1(C)CCC(c2ccc(Cl)cc2)=C(CN2CCN(c3ccc(C(=O)NS(=O)(=O)c4ccc(N[C@H](CCN5CCOCC5)CSc5ccccc5)c(S(=O)(=O)C(F)(F)F)c4)cc3)CC2)C1 [Navitoclax] (partner 0.5 µM)
Summary of the method: as §1

Cell Line	relative viability (Shikonin + Vorinostat; first compound 0.01 µM)	relative viability (Shikonin + Vorinostat; first compound 0.1 µM)	relative viability (Shikonin + Vorinostat; first compound 0.3162 µM)	relative viability (Shikonin + Vorinostat; first compound 1 µM)	relative viability (Shikonin + OSI-027; first compound 0.01 µM)	relative viability (Shikonin + OSI-027; first compound 0.1 µM)	relative viability (Shikonin + OSI-027; first compound 0.3162 µM)	relative viability (Shikonin + OSI-027; first compound 1 µM)	relative viability ([1]; first compound 0.08 µM)	relative viability ([1]; first compound 0.8 µM)	relative viability ([1]; first compound 2.53 µM)	relative viability ([1]; first compound 8 µM)	relative viability ([2]; first compound 0.08 µM)	relative viability ([2]; first compound 0.8 µM)	relative viability ([2]; first compound 2.53 µM)	relative viability ([2]; first compound 8 µM)	relative viability ([1]; first compound 0.253 µM)	relative viability ([2]; first compound 0.253 µM)
NCI-H23	0.611	0.75	0.59	0.625	0.623	0.661	0.62	0.521	0.57	0.556	0.577	0.592	0.771	0.698	0.822	0.75	–	–
NCI-H322M	0.672	0.911	0.953	0.978	0.548	0.562	0.53	0.509	0.863	0.877	0.861	0.894	1.16	1.19	1.2	1.16	0.81	1.09
NCI-H441	0.875	0.832	0.783	0.695	0.539	0.831	0.619	0.624	0.565	0.602	0.611	0.636	–	0.682	0.698	0.63	0.557	0.66
NCI-H460	0.919	0.946	0.959	0.828	0.834	0.755	1.11	0.879	0.722	0.627	0.66	0.678	1.01	1.12	1.27	0.9	0.775	1.16
NCI-H520	0.8	0.718	0.717	0.681	0.288	0.243	0.209	0.304	0.943	0.882	1	0.894	1.04	1.1	1.05	0.929	0.87	1.15
NCI-H596	0.45	0.616	0.612	0.774	0.584	0.968	0.754	0.679	0.991	1.02	1.08	1.21	0.98	0.909	1.01	0.992	0.926	0.877
NCI-H647	0.54	0.624	0.72	0.513	0.712	0.631	0.666	0.602	1.12	1.17	1.13	1.03	0.894	1.07	1.06	1.05	–	–
NCI-H727	1.32	1.44	1.27	1.14	0.683	0.668	0.57	0.525	0.333	0.286	0.359	0.209	0.416	0.499	0.534	0.506	0.281	0.389
NCI-H838	0.704	0.753	0.775	0.582	0.387	0.345	0.405	0.459	0.938	0.99	1.01	0.875	1.12	1.2	1.15	1.14	0.952	1.1
NCI-H1355	0.65	0.623	0.627	0.604	0.457	0.405	0.37	0.483	0.751	–	0.859	0.843	0.854	–	0.911	0.935	0.768	0.909
NCI-H1395	0.675	0.705	0.695	0.938	0.582	0.681	0.661	0.732	1.09	–	1.07	0.987	1.17	–	1.23	1.53	0.881	1.1
NCI-H1437	0.886	0.841	0.856	0.736	0.936	0.833	0.849	0.952	0.974	1.16	1.05	0.936	1	1.07	1.14	1.04	1.03	1.11
NCI-H1651	0.553	0.617	0.57	0.636	0.744	0.469	0.708	0.686	0.99	0.965	1.11	0.987	1.01	1.09	1.05	0.995	0.983	1.04
NCI-H1666	1.07	0.96	0.966	1.12	0.936	0.833	0.862	0.966	0.794	0.859	0.85	0.781	0.946	1.03	0.934	0.953	0.925	0.912
NCI-H1734	0.732	0.818	0.765	0.842	0.661	0.713	0.624	0.53	0.833	0.88	0.901	0.874	0.784	0.71	0.856	0.752	0.862	0.86
NCI-H1755	0.637	0.807	0.888	0.665	0.765	0.736	0.827	0.687	1.01	0.894	0.916	0.836	0.986	0.923	0.958	0.914	0.997	0.99
NCI-H1793	0.752	0.974	0.68	0.973	0.223	0.271	0.291	0.301	0.818	0.747	0.86	0.784	0.487	0.393	0.505	0.357	–	–
NCI-H1915	0.511	0.612	0.576	0.479	0.615	0.737	0.634	0.595	1.13	1.08	1.06	1.03	0.782	0.781	0.768	0.697	1.15	0.778

Cell Line	relative viability (Shikonin + Vorinostat; first compound 0.01 µM)	relative viability (Shikonin + Vorinostat; first compound 0.1 µM)	relative viability (Shikonin + Vorinostat; first compound 0.3162 µM)	relative viability (Shikonin + Vorinostat; first compound 1 µM)	relative viability (Shikonin + OSI-027; first compound 0.01 µM)	relative viability (Shikonin + OSI-027; first compound 0.1 µM)	relative viability (Shikonin + OSI-027; first compound 0.3162 µM)	relative viability (Shikonin + OSI-027; first compound 1 µM)	relative viability ([1]; first compound 0.08 µM)	relative viability ([1]; first compound 0.8 µM)	relative viability ([1]; first compound 2.53 µM)	relative viability ([1]; first compound 8 µM)	relative viability ([2]; first compound 0.08 µM)	relative viability ([2]; first compound 0.8 µM)	relative viability ([2]; first compound 2.53 µM)	relative viability ([2]; first compound 8 µM)	relative viability ([1]; first compound 0.253 µM)	relative viability ([2]; first compound 0.253 µM)
NCI-H1944	0.521	0.521	0.673	0.55	0.397	0.462	0.423	0.459	1.09	1.17	1.22	1.16	0.982	0.988	1.05	1.02	1.15	0.983
NCI-H1975	0.687	0.785	0.801	0.64	0.728	0.763	0.7	0.68	0.842	0.744	0.836	0.878	0.978	1.17	0.923	0.835	0.902	1.18
NCI-H1993	0.72	0.773	1.02	0.806	0.558	0.522	0.561	0.582	0.806	0.738	0.752	0.654	0.944	0.872	0.807	0.959	0.761	1.03
NCI-H2009	0.918	0.737	0.789	0.649	0.687	0.622	0.52	0.257	1.18	1.18	1.13	0.958	1.19	1.19	1.17	1.13	1.21	1.17
NCI-H2023	0.645	0.772	0.703	0.736	0.394	0.367	0.443	0.408	0.661	0.72	0.709	0.652	0.989	1.01	1.05	0.988	0.734	1.05
NCI-H2085	0.78	0.917	0.775	0.824	0.832	0.973	0.73	0.773	0.912	0.805	0.958	0.943	1.11	1.18	1.33	1.15	0.949	1.11
NCI-H2087	0.624	0.742	0.696	0.689	0.602	0.616	0.66	0.502	1.06	0.998	1.18	0.965	1.04	0.896	1.14	0.989	1.14	1.11
NCI-H2126	0.806	0.757	0.841	0.819	0.709	0.638	0.735	0.67	0.713	0.743	0.749	0.676	0.887	0.851	0.848	0.776	0.674	0.825
NCI-H2228	0.807	0.507	0.53	0.785	0.698	0.67	0.615	0.639	0.817	0.665	0.625	0.554	1.1	0.916	1.32	0.711	–	–
NCI-H2347	0.567	0.529	0.6	0.577	0.444	0.425	0.391	0.398	1	0.868	1.02	0.97	0.86	0.608	0.771	0.71	0.95	0.684
NCI-H2405	1.11	1.12	1.03	1.11	0.644	0.661	0.67	0.658	0.901	0.919	0.966	0.945	0.957	0.991	1	1.05	–	–
NCI-H3122	1.07	0.986	1.29	0.944	1.07	1.27	1.03	1.06	1.03	0.919	1.01	0.938	1.03	1.04	0.985	0.931	0.989	0.997
PC-3 [JPC-3]	0.845	0.792	0.781	1.3	0.851	0.746	0.759	0.751	0.97	0.876	0.919	0.897	0.784	0.807	0.797	0.7	0.94	0.752
PC-14	0.807	0.833	0.77	0.484	0.921	0.556	1.06	0.9	0.962	0.979	0.908	0.857	1	0.946	1.03	0.847	0.969	0.996
RERF-LC-KJ	0.709	0.836	0.718	0.757	0.513	0.534	0.632	0.644	0.85	0.895	0.897	0.794	0.717	1.03	0.931	0.822	0.93	1.06
SK-LU-1	0.844	0.878	0.853	0.704	0.341	0.371	0.343	0.352	0.94	1.17	1.41	0.953	0.688	0.86	1.06	0.557	1.33	0.762
SK-MES-1	1.13	1.33	1.12	1.26	0.694	0.493	0.742	0.519	1.06	1.11	1.09	1.06	1.12	1.28	1.18	1.19	1.17	1.26
